Experimental data: the supplement of paper PMC12137928
Where a name gives a salt, the structure may show the parent alone.

Assays:
HCT116 [1] = conditions: 72 h
Procedure, shortened: (§1)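 Luminescence was read with CellTiter-Glo in HCT116 cells seeded at 250 per well in 1536-well plates. Signals were scaled between vehicle at 0% and positive control at -100%, then pattern-corrected. IC50 and maximal efficacy were obtained by fitting a four-parameter Hill equation.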

HCT116 [2] = experiment: efficacy (maximum % inhibition of viability vs DMSO); higher = more cytotoxic; conditions: 72 h
Procedure, shortened: as §1

Row | IC50 cell viability (HCT116 [1]; ICRF193 0 nM) | IC50 cell viability (HCT116 [1]; ICRF193 200 nM) | SMILES | efficacy (HCT116 [2]; ICRF193 200 nM) | efficacy (HCT116 [2]; ICRF193 0 nM)
1 | 1.3 µM | 1.16 µM | O=C(/C=C/c1cccc(S(=O)(=O)Nc2ccccc2)c1)NO [Belinostat] | 62.1% | 100%
2 | > 45.8 µM | 0.92 µM | NS(=O)(=O)c1cc2c(cc1C(F)(F)F)NC(Cc1ccccc1)NS2(=O)=O (configuration not stated) [Bendroflumethiazide] | 68.8% | 
3 | > 45.8 µM | 29.1 µM | CCc1oc2ccccc2c1C(=O)c1cc(I)c(O)c(I)c1 [Benziodarone] | 44.1% | 
4 | > 45.8 µM | 29.1 µM | O=C(Oc1cccc2cccnc12)c1ccccc1 [Benzoxiquine] | 70.8% | 
5 | > 45.8 µM | 29.1 µM | NS(=O)(=O)c1cc2c(cc1Cl)N=C(CSCc1ccccc1)NS2(=O)=O [Benzthiazide] | 77% | 
6 | 20.6 µM | 29.1 µM | CC(C)COCC(CN(Cc1ccccc1)c1ccccc1)N1CCCC1 (configuration not stated) [Bepridil] | 73.2% | 85.1%
7 | 20.6 µM | 14.6 µM | CNCCCCOc1ccccc1Cc1ccccc1 [Bifemelane] | 49.6% | 40.6%
8 | 25.9 µM | 16.4 µM | c1ccc(-c2ccc(C(c3ccccc3)n3ccnc3)cc2)cc1 (configuration not stated) [Bifonazole] | 75.2% | 75.7%
9 | 2.06 µM | > 45.8 µM | CC(=O)Oc1ccc(C(c2ccc(OC(C)=O)cc2)c2ccccn2)cc1 [Bisacodyl] |  | 48.1%
10 | 14.6 µM | 20.6 µM | CC(=O)Oc1ccc(C2(c3ccc(OC(C)=O)cc3)Oc3ccccc3NC2=O)cc1 [Bisoxatin acetate] | 89% | 66.7%
11 | 20.6 µM | 13 µM | COc1cc(N2CCC(N3CCN(C)CC3)CC2)ccc1Nc1ncc(Cl)c(Nc2ccccc2P(C)(C)=O)n1 [Brigatinib] | 92.5% | 82.6%
12 | 20.6 µM | 20.6 µM | CC(C)(C)c1ccc(CN2CCN(C(c3ccccc3)c3ccc(Cl)cc3)CC2)cc1 (configuration not stated) [Buclizine HCl] | 59% | 42.9%
13 | 11.6 µM | 10.3 µM | CCCCCCOc1ccc(C(=N)N(CCCC)CCCC)c2ccccc12 [Bunamidine hydrochloride] | 106% | 104%
14 | 20.6 µM | 25.9 µM | Clc1ccc(CCC(Cn2ccnc2)Sc2c(Cl)cccc2Cl)cc1 (configuration not stated) [Butoconazole nitrate] | 93.9% | 96%
15 | 10.3 µM | 5.17 µM | CC1=CC(=C(c2ccc(N)cc2)c2ccc(N)cc2)C=CC1=N [C.I. Basic Violet 14] | 92.3% | 98.1%
16 | 13 µM | 23.1 µM | CC(C)OC(=O)Nc1ccc2[nH]c(-c3cscn3)nc2c1 [Cambendazole] | 97.2% | 63%
17 | 20.6 µM | 29.1 µM | CCOc1nc2cccc(C(=O)OC(C)OC(=O)OC3CCCCC3)c2n1Cc1ccc(-c2ccccc2-c2nn[nH]n2)cc1 (configuration not stated) [Candesartan cilexetil (Atacand)] | 100% | 93%
18 | 20.6 µM | 29.1 µM | COc1ccccc1OCCNCC(O)COc1cccc2[nH]c3ccccc3c12 (configuration not stated) [Carvedilol tartrate] | 102% | 96.8%
19 | 18.3 µM | 18.3 µM | Cc1ccc(-c2cc(C(F)(F)F)nn2-c2ccc(S(N)(=O)=O)cc2)cc1 [Celecoxib] | 58.1% | 47.1%
20 | 18.3 µM | 29.1 µM | Cc1cc(Nc2ncc(Cl)c(Nc3ccccc3S(=O)(=O)C(C)C)n2)c(OC(C)C)cc1C1CCNCC1 [Ceritinib] | 105% | 108%
21 | 18.3 µM | 18.3 µM | N=C(NCCCCCCNC(=N)NC(=N)Nc1ccc(Cl)cc1)NC(=N)Nc1ccc(Cl)cc1 [Chlorhexidine] | 103% | 104%
22 | > 45.8 µM | 23.1 µM | COc1ccc(C(Cl)=C(c2ccc(OC)cc2)c2ccc(OC)cc2)cc1 [Chlorotrianisene] | 45.8% | 
23 | 29.1 µM | 29.1 µM | Oc1c(Cl)cc(Cl)c2cccnc12 [Chloroxine] | 112% | 103%
24 | 20.6 µM | 29.1 µM | CN(C)CCCN1c2ccccc2Sc2ccc(Cl)cc21 [Chlorpromazine] | 93.2% | 117%
25 | 16.4 µM | 25.9 µM | CN(C)CC/C=C1/c2ccccc2Sc2ccc(Cl)cc21 [Chlorprothixene] | 68.9% | 66.1%

Further lines, the compound ahead of its results:

Row | SMILES | IC50 cell viability (HCT116 [1]; ICRF193 0 nM) | IC50 cell viability (HCT116 [1]; ICRF193 200 nM) | efficacy (HCT116 [2]; ICRF193 200 nM) | efficacy (HCT116 [2]; ICRF193 0 nM)
26 | CC[C@H]1OC(=O)[C@H](C)[C@@H](O[C@H]2C[C@@](C)(OC)[C@@H](O)[C@H](C)O2)[C@H](C)[C@@H](O[C@@H]2O[C@H](C)C[C@H](N(C)C)[C@H]2O)[C@](C)(O)C[C@@H](C)CN(C)[C@H](C)[C@@H](O)[C@]1(C)O [Azithromycin] | > 45.8 µM | 20.6 µM | 68.7% | 
27 | CCCCCCCCCCCCC[N+](C)(C)Cc1ccccc1 [BENZALKONIUM CHLORIDE] | 20.6 µM | 23.1 µM | 124% | 133%
28 | CC(C)C[C@H]1C(=O)N2CCC[C@H]2[C@]2(O)O[C@](NC(=O)[C@@H]3C=C4c5cccc6[nH]c(Br)c(c56)C[C@H]4N(C)C3)(C(C)C)C(=O)N12 [BROMOCRIPTINE] | > 45.8 µM | 18.3 µM | 43.2% | 
29 | CCCC(=O)Nc1ncnc2c1ncn2[C@@H]1O[C@@H]2COP(=O)(O)O[C@H]2[C@H]1OC(=O)CCC [BUCLADESINE] | 25.9 µM | > 45.8 µM |  | 48.8%
30 | Cc1c(-c2ccc(O)cc2)n(Cc2ccc(OCCN3CCCCCC3)cc2)c2ccc(O)cc12 [Bazedoxifene] | > 45.8 µM | 23.1 µM | 47.4% | 
31 | C[C@H]1C[C@H]2[C@@H]3CCC4=CC(=O)C=C[C@]4(C)[C@@]3(Cl)[C@@H](O)C[C@]2(C)[C@@]1(O)C(=O)CO [Beclomethasone] | 23.1 µM | 20.6 µM | 86.6% | 84.6%
32 | CCCCCCCCCCCCCCCC[N+](C)(C)Cc1ccccc1 [Benzylhexadecyldimethylammonium chloride] | 18.3 µM | 18.3 µM | 129% | 128%
33 | COc1ccc2cc3[n+](cc2c1OC)CCc1cc2c(cc1-3)OCO2 [Berberine] | 23.1 µM | 10.3 µM | 56.1% | 50.1%
34 | CC(C)NCC(O)COc1ccc(CCOCC2CC2)cc1 (configuration not stated) [Betaxolol HCl] | > 45.8 µM | 5.17 µM | 76.2% | 
35 | Oc1c(Cl)cc(Cl)cc1Sc1cc(Cl)cc(Cl)c1O [Bithionol] | 18.3 µM | 20.6 µM | 108% | 92.2%
36 | CC(C)C[C@H](NC(=O)[C@H](Cc1ccccc1)NC(=O)c1cnccn1)B(O)O [Bortezomib] | 0.00517 µM | 0.00517 µM | 97.3% | 93.7%
37 | COc1cc(Nc2c(C#N)cnc3cc(OCCCN4CCN(C)CC4)c(OC)cc23)c(Cl)cc1Cl [Bosutinib] | 29.1 µM | 18.3 µM | 132% | 106%
38 | O=c1ccc2ccc(OCCCCN3CCN(c4cccc5sccc45)CC3)cc2[nH]1 [Brexpiprazole] | 18.3 µM | 20.6 µM | 106% | 102%
39 | O=C(CCCN1CCC(O)(c2ccc(Br)cc2)CC1)c1ccc(F)cc1 [Bromperidol] | 18.3 µM | 20.6 µM | 55.1% | 44.8%
40 | C[C@]12CC[C@H](O)C[C@H]1CC[C@@H]1[C@@H]2CC[C@]2(C)[C@@H](c3ccc(=O)oc3)C[C@H]3O[C@]132 [Bufogenin] | 4.61 µM | 4.61 µM | 84.6% | 71.3%
41 | O=C(O)C1=C(CSc2nnnn2CS(=O)(=O)O)CS[C@@H]2[C@H](NC(=O)[C@H](O)c3ccccc3)C(=O)N12 [CEFONICID SODIUM] | > 45.8 µM | 6.51 µM | 85.2% | 

Row | SMILES | IC50 cell viability (HCT116 [1]; ICRF193 0 nM) | IC50 cell viability (HCT116 [1]; ICRF193 200 nM) | efficacy (HCT116 [2]; ICRF193 200 nM) | efficacy (HCT116 [2]; ICRF193 0 nM)
42 | C=C1CC[C@H](O)C/C1=C/C=C1\CCC[C@]2(C)[C@@H]([C@H](C)CCCC(C)C)CC[C@@H]12 [CHOLECALCIFEROL] | 23.1 µM | 23.1 µM | 79.4% | 87.9%
43 | CO[C@H]1C(=O)[C@]2(C)[C@@H](OC)C[C@H]3OC[C@@]3(OC(C)=O)[C@H]2[C@H](OC(=O)c2ccccc2)[C@]2(O)C[C@H](OC(=O)[C@H](O)[C@@H](NC(=O)OC(C)(C)C)c3ccccc3)C(C)=C1C2(C)C [Cabazitaxel] | > 45.8 µM | 0.0058 µM | 65.5% | 
44 | COc1cc2nccc(Oc3ccc(NC(=O)C4(C(=O)Nc5ccc(F)cc5)CC4)cc3)c2cc1OC [Cabozantinib] | 20.6 µM | 16.4 µM | 69.8% | 58.4%
45 | C=C1CC[C@H](O)C/C1=C/C=C1\CCC[C@]2(C)[C@@H]([C@H](C)CCCC(C)(C)O)CC[C@@H]12 [Calcifediol (monohydrate)] | > 45.8 µM | 23.1 µM | 42.8% | 
46 | C=C1/C(=C\C=C2/CCC[C@]3(C)[C@@H]([C@H](C)/C=C/[C@@H](O)C4CC4)CC[C@@H]23)C[C@@H](O)C[C@@H]1O [Calcipotriene] | > 45.8 µM | 20.6 µM | 54% | 
47 | C=C(C)[C@@H]1CCC(C)=C[C@H]1c1c(O)cc(CCCCC)cc1O [Cannabidiol] | 20.6 µM | 23.1 µM | 49.4% | 52.9%
48 | C[C@@]12C(=O)OC(=O)[C@]1(C)[C@H]1CC[C@@H]2O1 [Cantharidin] | 5.8 µM | 4.11 µM | 77.2% | 74.9%
49 | CO[C@@H]1[C@@H](O[C@@H]2O[C@H](C)[C@@H](O[C@H]3C[C@@](C)(O)[C@@H](OC(=O)CC(C)C)[C@H](C)O3)[C@H](N(C)C)[C@H]2O)[C@@H](CC=O)C[C@@H](C)C(=O)/C=C/[C@@H]2O[C@H]2C[C@@H](C)OC(=O)C[C@H]1OC(C)=O [Carbomycin A] | 25.9 µM | 20.6 µM | 91.2% | 93%
50 | CC(C)C[C@H](NC(=O)[C@H](CCc1ccccc1)NC(=O)CN1CCOCC1)C(=O)N[C@@H](Cc1ccccc1)C(=O)N[C@@H](CC(C)C)C(=O)[C@@]1(C)CO1 [Carfilzomib] | 0.0183 µM | 0.0164 µM | 89.7% | 86%
51 | CCCCCCNC(=O)n1cc(F)c(=O)[nH]c1=O [Carmofur] | 10.3 µM | 8.2 µM | 92% | 87.1%
52 | NC(=O)C1(N2CCCCC2)CCN(CCCN2c3ccccc3CCc3ccccc32)CC1 [Carpipramine Dihydrochloride] | 23.1 µM | 20.6 µM | 100% | 115%
53 | CC(=O)OCC1=C(C(=O)O)N2C(=O)[C@@H](NC(=O)[C@H](N)c3ccccc3)[C@H]2SC1 [Cephaloglycin] | > 45.8 µM | 6.51 µM | 61.5% | 
54 | COc1ccc2cc1Oc1ccc(cc1)C[C@H]1c3c(cc4c(c3Oc3cc5c(cc3OC)CCN(C)[C@@H]5C2)OCO4)CCN1C [Cepharanthine] | > 45.8 µM | 4.61 µM | 41.2% | 
55 | COCc1c(C(C)C)nc(C(C)C)c(/C=C/[C@@H](O)C[C@@H](O)CC(=O)O)c1-c1ccc(F)cc1 [Cerivastatin sodium] | 1.03 µM | 0.92 µM | 102% | 106%
56 | CCCCCCCCCCCCCCCC[n+]1ccccc1 [Cetylpyridinium bromide] | 2.59 µM | 2.59 µM | 90.4% | 90.6%
